Experimental data as given in ChEMBL document CHEMBL5113426, “Design, synthesis and antitumor activity study of PARP-1/HDAC dual targeting inhibitors” (Bioorg Med Chem Lett, 2022).
Active and inactive are the calls of the source. No cut-off for these calls is given here.

Columns and labels:
A549 = experiment: Antiproliferative activity against human A549 cells assessed as reduction in cell viability; format: functional, cell-based
CAPAN-1 = experiment: Antiproliferative activity against human CAPAN-1 cells assessed as reduction in cell viability; format: functional, cell-based
[1] = target: Poly [ADP-ribose] polymerase 1 (Homo sapiens, UniProt P09874); experiment: Inhibition of PARP-1 derived from human HeLa cell nucleus; format: subcellular
Chain of Poly [ADP-ribose] polymerase 1 (P09874 whole entry): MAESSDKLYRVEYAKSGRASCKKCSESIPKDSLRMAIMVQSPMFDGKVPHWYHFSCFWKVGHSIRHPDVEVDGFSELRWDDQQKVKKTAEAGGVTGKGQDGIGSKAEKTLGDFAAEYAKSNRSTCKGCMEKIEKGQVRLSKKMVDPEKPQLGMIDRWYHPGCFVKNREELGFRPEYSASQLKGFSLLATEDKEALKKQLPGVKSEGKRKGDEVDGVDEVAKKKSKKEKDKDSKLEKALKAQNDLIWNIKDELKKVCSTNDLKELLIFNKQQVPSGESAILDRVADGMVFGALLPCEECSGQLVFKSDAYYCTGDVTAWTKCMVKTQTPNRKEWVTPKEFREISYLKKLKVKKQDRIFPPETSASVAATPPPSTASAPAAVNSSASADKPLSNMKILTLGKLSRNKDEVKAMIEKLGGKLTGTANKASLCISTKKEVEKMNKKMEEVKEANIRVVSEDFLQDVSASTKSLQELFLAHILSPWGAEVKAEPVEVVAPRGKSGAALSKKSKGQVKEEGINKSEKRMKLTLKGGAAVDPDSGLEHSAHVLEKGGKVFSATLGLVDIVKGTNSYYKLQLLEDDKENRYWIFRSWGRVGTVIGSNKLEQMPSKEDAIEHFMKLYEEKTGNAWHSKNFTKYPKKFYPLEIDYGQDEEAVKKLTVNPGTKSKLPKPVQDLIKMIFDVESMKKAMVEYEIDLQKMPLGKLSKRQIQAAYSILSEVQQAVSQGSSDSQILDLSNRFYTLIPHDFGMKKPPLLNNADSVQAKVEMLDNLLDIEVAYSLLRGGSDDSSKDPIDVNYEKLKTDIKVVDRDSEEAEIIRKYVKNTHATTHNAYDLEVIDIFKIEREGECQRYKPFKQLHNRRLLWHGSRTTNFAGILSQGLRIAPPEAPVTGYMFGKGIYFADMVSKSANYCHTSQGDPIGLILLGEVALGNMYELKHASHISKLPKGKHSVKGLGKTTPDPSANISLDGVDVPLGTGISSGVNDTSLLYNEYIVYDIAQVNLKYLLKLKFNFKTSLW

Histone deacetylase = experiment: Inhibition of HDAC derived from human HeLa cell nucleus; format: subcellular
DU-145 = experiment: Antiproliferative activity against human DU-145 cells assessed as reduction in cell viability; format: functional, cell-based
ES-2 [2] = experiment: Antiproliferative activity against human ES2 cells assessed as reduction in cell viability measured after 7 days; format: functional, cell-based; conditions: ES-2, 168 h
MDA-MB-231 [3] = experiment: Antiproliferative activity against human MDA-MB-231 cells assessed as reduction in cell viability measured after 7 days; format: functional, cell-based; conditions: MDA-MB-231, 168 h
HCC1937 = experiment: Antiproliferative activity against human HCC1937 cells assessed as reduction in cell viability; format: functional, cell-based
Histone deacetylase 3 = Histone deacetylase 3 (Homo sapiens, UniProt O15379); experiment: Inhibition of HDAC3 (unknown origin)
Chain of Histone deacetylase 3 (O15379 whole entry): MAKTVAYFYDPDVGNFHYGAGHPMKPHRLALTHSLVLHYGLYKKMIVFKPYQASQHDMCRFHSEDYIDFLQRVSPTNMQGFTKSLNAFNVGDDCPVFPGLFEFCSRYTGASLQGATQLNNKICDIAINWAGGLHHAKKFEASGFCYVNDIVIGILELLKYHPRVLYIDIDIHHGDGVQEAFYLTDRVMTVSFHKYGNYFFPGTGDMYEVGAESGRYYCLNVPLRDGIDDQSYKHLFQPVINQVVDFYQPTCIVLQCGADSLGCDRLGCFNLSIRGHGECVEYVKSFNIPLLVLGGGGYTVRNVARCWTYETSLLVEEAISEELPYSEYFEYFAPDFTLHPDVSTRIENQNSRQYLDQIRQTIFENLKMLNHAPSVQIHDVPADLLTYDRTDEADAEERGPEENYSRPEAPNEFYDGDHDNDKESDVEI

[4] = target: Vascular endothelial growth factor receptor 2 (Homo sapiens, UniProt P35968); experiment: Inhibition of VEGFR2 (unknown origin)
Chain of Vascular endothelial growth factor receptor 2 (P35968 whole entry): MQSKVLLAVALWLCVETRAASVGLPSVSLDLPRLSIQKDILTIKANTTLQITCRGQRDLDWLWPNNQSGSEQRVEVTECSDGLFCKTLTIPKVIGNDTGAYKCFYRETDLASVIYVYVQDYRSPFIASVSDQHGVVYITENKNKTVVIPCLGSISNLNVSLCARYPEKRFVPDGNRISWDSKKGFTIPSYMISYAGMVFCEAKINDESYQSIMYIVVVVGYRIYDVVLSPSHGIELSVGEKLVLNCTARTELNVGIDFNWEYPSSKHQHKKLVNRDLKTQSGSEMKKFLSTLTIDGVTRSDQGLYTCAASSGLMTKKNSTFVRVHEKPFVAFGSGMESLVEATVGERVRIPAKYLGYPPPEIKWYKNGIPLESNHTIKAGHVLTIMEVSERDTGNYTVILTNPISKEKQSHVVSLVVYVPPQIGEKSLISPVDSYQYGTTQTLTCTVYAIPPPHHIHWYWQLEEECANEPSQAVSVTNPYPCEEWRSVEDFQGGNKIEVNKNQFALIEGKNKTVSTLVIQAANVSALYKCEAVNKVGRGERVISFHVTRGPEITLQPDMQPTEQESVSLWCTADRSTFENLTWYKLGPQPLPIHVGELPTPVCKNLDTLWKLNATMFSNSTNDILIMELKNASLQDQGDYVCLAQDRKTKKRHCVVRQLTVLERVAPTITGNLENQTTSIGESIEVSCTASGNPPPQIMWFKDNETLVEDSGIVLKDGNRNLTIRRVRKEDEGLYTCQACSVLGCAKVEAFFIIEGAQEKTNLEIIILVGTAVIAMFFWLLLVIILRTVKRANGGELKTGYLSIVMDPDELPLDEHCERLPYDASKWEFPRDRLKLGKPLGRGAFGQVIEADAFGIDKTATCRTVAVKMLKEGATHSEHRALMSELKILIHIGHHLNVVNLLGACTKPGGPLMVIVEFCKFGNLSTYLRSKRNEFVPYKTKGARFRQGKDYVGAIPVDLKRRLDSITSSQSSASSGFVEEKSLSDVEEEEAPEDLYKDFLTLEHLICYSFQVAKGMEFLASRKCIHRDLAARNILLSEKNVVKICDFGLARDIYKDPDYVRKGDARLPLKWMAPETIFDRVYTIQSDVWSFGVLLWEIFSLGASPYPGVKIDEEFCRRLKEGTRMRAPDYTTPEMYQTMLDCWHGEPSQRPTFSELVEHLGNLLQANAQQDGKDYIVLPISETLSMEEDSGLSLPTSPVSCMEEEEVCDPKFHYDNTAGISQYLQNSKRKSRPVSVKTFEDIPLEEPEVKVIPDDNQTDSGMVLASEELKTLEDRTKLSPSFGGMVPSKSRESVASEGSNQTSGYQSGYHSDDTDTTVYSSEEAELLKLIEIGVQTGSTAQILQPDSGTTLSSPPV

[5] = target: T1, Protein deacetylase HDAC6 (Homo sapiens, UniProt Q9UBN7); experiment: Inhibition of HDAC6 (unknown origin)
T1 sequence (Q9UBN7 whole entry): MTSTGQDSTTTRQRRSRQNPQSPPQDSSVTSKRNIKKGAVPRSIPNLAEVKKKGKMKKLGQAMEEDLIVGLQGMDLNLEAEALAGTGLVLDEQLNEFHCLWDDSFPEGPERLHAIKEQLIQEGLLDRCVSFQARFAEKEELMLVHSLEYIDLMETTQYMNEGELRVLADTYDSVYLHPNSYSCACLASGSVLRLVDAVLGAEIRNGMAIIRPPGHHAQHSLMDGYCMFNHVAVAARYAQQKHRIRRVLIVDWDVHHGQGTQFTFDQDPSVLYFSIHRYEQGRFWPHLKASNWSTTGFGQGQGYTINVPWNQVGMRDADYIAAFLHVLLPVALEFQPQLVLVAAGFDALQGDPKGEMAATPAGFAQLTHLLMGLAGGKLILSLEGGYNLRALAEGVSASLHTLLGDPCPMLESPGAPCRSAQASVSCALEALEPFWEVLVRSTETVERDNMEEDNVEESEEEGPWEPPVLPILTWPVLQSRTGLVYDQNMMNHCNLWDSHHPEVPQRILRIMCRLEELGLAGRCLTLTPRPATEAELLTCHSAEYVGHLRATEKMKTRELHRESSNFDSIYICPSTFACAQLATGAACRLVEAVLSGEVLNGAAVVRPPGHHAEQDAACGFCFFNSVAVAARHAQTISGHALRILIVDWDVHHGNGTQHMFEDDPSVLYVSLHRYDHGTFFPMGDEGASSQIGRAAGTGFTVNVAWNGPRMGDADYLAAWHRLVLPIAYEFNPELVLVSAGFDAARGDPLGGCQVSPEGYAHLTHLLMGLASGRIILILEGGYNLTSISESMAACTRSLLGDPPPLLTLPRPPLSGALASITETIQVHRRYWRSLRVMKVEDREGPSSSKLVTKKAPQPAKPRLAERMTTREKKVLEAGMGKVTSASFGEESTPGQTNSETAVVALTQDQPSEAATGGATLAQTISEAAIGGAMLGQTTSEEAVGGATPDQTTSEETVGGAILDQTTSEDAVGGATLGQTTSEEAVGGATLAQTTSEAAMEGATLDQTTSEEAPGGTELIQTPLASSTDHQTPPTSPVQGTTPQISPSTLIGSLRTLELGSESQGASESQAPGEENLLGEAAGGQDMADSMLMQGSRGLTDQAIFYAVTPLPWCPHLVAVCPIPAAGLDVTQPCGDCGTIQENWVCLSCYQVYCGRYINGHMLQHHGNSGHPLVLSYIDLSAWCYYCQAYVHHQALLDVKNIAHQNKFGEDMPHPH

Histone deacetylase 4 = Histone deacetylase 4 (Homo sapiens, UniProt P56524); experiment: Inhibition of HDAC4 (unknown origin)
Chain of Histone deacetylase 4 (P56524 whole entry): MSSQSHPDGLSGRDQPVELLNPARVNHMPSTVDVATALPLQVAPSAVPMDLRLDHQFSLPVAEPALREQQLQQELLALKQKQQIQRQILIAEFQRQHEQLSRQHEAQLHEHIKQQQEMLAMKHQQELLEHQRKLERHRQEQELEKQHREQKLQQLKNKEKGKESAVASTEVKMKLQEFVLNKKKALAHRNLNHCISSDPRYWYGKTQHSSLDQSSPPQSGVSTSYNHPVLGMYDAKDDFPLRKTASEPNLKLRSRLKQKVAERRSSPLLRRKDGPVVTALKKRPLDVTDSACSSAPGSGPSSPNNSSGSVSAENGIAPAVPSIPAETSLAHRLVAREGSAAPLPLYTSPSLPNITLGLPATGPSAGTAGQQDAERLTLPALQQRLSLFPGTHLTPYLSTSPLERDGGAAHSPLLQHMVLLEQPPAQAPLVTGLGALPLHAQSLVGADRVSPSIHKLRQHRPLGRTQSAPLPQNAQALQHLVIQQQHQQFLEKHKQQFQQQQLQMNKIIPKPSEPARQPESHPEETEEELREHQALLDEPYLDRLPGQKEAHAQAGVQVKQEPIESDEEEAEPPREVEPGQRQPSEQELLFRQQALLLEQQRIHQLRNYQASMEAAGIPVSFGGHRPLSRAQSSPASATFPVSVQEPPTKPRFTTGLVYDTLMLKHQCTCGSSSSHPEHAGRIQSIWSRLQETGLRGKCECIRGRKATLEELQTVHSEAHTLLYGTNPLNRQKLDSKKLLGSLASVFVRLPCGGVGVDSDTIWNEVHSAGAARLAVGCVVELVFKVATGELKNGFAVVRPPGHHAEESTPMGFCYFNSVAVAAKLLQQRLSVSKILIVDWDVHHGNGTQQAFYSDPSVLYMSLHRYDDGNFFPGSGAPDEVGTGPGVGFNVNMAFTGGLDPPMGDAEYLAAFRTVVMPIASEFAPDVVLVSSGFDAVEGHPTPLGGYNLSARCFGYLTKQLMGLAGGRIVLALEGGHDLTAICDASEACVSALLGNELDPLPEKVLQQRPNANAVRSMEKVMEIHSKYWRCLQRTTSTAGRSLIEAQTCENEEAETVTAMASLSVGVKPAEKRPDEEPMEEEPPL

Histone deacetylase 8 = target: T2, Histone deacetylase 8 (Homo sapiens, UniProt Q9BY41); experiment: Inhibition of HDAC8 (unknown origin)
T2 sequence (Q9BY41 whole entry): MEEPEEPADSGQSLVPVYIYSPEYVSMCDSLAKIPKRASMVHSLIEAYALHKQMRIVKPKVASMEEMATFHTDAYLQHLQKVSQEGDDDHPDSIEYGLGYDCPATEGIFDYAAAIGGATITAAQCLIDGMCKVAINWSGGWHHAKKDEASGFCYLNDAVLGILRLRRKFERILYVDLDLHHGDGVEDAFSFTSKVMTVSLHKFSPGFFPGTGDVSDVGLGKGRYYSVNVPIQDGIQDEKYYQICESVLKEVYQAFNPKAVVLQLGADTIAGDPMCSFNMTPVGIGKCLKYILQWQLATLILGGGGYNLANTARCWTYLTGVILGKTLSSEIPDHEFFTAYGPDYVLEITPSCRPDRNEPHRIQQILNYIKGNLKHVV

Histone deacetylase 2 = Histone deacetylase 2 (Homo sapiens, UniProt Q92769); experiment: Inhibition of HDAC2 (unknown origin)
Chain of Histone deacetylase 2 (Q92769 whole entry): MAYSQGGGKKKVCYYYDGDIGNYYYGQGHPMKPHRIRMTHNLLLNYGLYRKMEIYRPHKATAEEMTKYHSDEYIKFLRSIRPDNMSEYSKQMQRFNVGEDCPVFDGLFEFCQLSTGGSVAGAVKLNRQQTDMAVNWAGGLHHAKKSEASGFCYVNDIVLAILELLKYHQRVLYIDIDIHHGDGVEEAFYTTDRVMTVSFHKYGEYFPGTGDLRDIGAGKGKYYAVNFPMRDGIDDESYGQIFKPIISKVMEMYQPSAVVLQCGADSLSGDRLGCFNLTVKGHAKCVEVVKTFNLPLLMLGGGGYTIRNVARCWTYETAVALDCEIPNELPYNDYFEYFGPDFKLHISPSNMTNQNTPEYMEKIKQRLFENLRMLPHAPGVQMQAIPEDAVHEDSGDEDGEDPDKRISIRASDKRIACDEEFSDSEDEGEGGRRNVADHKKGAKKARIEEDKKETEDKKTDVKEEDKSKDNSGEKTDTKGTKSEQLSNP

[6] = Cytotoxicity against human EA.hy 926 assessed as inhibition of cell growth; format: toxicity, cell-based; conditions: EA.hy 926 cells
MDA-MB-231 [7] = experiment: Inhibition of cell migration in human MDA-MB-231 cells at 3 to 10 uM measured upto 48 hrs by wound healing assay; format: functional, cell-based; conditions: dose 3-10 µM
ES-2 [8] = experiment: Upregulation of Ac-HH4 expression in human ES2 cells at 10 uM by Western blot analysis; format: functional, cell-based
MDA-MB-436 = experiment: Induction of intracellular ROS generation in human MDA-MB-436 cells assessed as increase in ROS level by DCFH-DA staining based microscopic analysis; format: functional, cell-based; conditions: dose 1.25-5 µM, DDE = dose-dependent effect
ES-2 [9] = experiment: Upregulation of Ac-tubulin expression in human ES2 cells at 0.3 uM by Western blot analysis; format: functional, cell-based
ES-2 [10] = experiment: Upregulation of Ac-HH3 expression in human ES2 cells at 10 uM by Western blot analysis; format: functional, cell-based
HUVEC = experiment: Antiangiogenesis activity in HUVEC cells assessed as damage in vascular tube structure at 5 to 10 uM by tube formation assay; format: functional, cell-based; conditions: Homo sapiens, dose 5-10 µM

Structure (SMILES) | IC50 (A549) [µM] | IC50 (CAPAN-1) [µM] | IC50 [1] [µM] | IC50 (Histone deacetylase) [µM] | IC50 (DU-145) [µM] | IC50 (ES-2 [2]) [µM] | IC50 (MDA-MB-231 [3]) [µM] | IC50 (HCC1937) [µM] | other results
NC(=O)/C=C/c1ccc(COc2ccc(-c3nc4c(C(N)=O)cccc4[nH]3)cc2)cc1 | 7.72 | 5.63 | 0.0274 | 7.9 | 4.7 | 1.37 | 0.69 | 2.88 | –
NC(=O)c1cccc2cn(-c3ccc(OCCCCCC(=O)NO)cc3)nc12 | – | – | 0.285 | > 30 | – | 1.68 | 4.28 | – | –
NC(=O)c1cccc2[nH]c(-c3ccc(OCCCC(=O)NO)cc3)nc12 | – | – | 0.0142 | > 30 | – | > 30 | > 30 | – | –
NC(=O)c1cccc2cn(-c3ccc(OCCCCCCCC(=O)NO)cc3)nc12 | – | – | 0.245 | 13.7 | – | 6.15 | > 30 | – | –
NC(=O)/C=C/c1ccc(COc2ccc(-n3cc4cccc(C(N)=O)c4n3)cc2)cc1 | 6.98 | 6.55 | 0.227 | 10.6 | 3.59 | 0.42 | 0.34 | 1.92 | IC50 (Histone deacetylase 3): 2.19 µM; IC50 [4]: 0.0034 µM; IC50 [5]: 0.51 µM; IC50 (Histone deacetylase 4): > 100 µM; IC50 (Histone deacetylase 8): > 100 µM; IC50 (Histone deacetylase 2): 31 µM; IC50 [6]: 26 µM
NC(=O)c1cccc2cn(-c3ccc(OCCCC(=O)NO)cc3)nc12 | – | – | 0.102 | > 30 | – | 12.7 | 9.93 | – | –
NC(=O)c1cccc2[nH]c(-c3ccc(OCCCCCCC(=O)NO)cc3)nc12 | – | – | 0.038 | 7 | – | > 30 | > 30 | – | –
O=C(c1cc(Cc2n[nH]c(=O)c3ccccc23)ccc1F)N1CCN(C(=O)C2CC2)CC1 [OLAPARIB] | 5.89 | 1.67 | – | – | 11.4 | 2.05 | 0.69 | > 30 | –
NC(=O)c1cccc2[nH]c(-c3ccc(OCCCCCCCC(=O)NO)cc3)nc12 | – | – | 0.0475 | > 30 | – | > 30 | > 30 | – | –
NC(=O)c1ccc(COc2ccc(-n3cc4cccc(C(N)=O)c4n3)cc2)cc1 | 5.67 | 4.53 | 0.0689 | 10.8 | 3.38 | 1.16 | 0.35 | 2.85 | IC50 (Histone deacetylase 3): 7.22 µM; IC50 [4]: 0.00592 µM; inhibition (MDA-MB-231 [7]): Active; IC50 [5]: 0.54 µM; Activity (ES-2 [8]): Active; Activity (MDA-MB-436): Dde; Activity (ES-2 [9]): Active; IC50 (Histone deacetylase 4): > 100 µM; IC50 (Histone deacetylase 8): > 100 µM; IC50 (Histone deacetylase 2): 42.1 µM; IC50 [6]: 5.41 µM; Activity (ES-2 [10]): Active; Activity (HUVEC): Active
NC(=O)c1cccc2cn(-c3ccc(OCCCCCCC(=O)NO)cc3)nc12 | – | – | 0.128 | > 30 | – | 1.57 | > 30 | – | –
NC(=O)c1cccc2cn(-c3ccc(OCCCCC(=O)NO)cc3)nc12 | – | – | 0.102 | > 30 | – | 3.64 | 2.41 | – | –
NC(=O)c1cccc2[nH]c(-c3ccc(OCCCCCC(=O)NO)cc3)nc12 | – | – | 0.0202 | 5.5 | – | > 30 | > 30 | – | –
NC(=O)c1cccc2[nH]c(-c3ccc(OCCCCC(=O)NO)cc3)nc12 | – | – | 0.0121 | > 30 | – | > 30 | > 30 | – | –
NC(=O)c1ccc(COc2ccc(-c3nc4c(C(N)=O)cccc4[nH]3)cc2)cc1 | 16.4 | 26.4 | 0.031 | 7.7 | 8.56 | 1.16 | 1.08 | 4.05 | –
